Square brackets hold non-standard residues; d marks the D form. Ends that are not written are not given here. pGlu = O=C1CC[C@@H](C(=O)O)N1
Tests used:
Fusarium culmorum [1] = experiment: Liquid growth inhibition assay in half strength potato dextrose broth; type: cell-based; settings: for IC50 (concentration required for 50% growth inhibition) / type of inhibition (hyphal morphology): F culmorum; for IC50 (concentration required for 50% growth inhibition): from dose-response curves of serial dilutions; for type of inhibition (hyphal morphology): induction of multiple branches near the tips
Procedure: Yeast cells transformed with either pTG3828, pMFprepro/Rs AFP2 or PMFpre/RsAFP2 were grown in selective SD medium until a saturated culture was obtained. To assess the antifungal activity of proteins secreted by the yeast cells, the supernatant of the yeast cultures was filtered (sterile 0.22 μm filter) and serially diluted in sterile water. Diluted samples (20 μl) were incubated in microtiter plate wells with 80 μl of half strength potato dextrose broth (Difco) containing spores 10^4 spores/ml) of Fusarium culmorum.
Growth of the fungi was monitored by microspectrophotometry as described by Broekaert et al (1990, FEMS Microbiol Lett, 69:55-60). Homogenates of yeast cells were prepared by spinning down 1 ml of a saturated yeast culture, suspending the cells in 200 μl of water, vortexing the cells in the presence of 0.2 g of glass beads (425-600 μm), and clearing the homogenate by centrifugation (1 min, 10000×g). Antifungal activity could only be detected in the culture medium of yeast cells transformed with pMFprepro/RsAFP2, which contained about 2 μg/ml of Rs-AFP2 equivalents. The activity of the homogenate of these cells, as well as that of culture media and cell homogenates of yeast cells transformed with pMFpre/RsAFP2 or pTG3828 transformed yeasts was below the detection limit (about 0.2 μg/ml of Rs-AFP2 equivalents).
The supernatant of 100 ml of a saturated culture of yeast transformed with pMFprepro/RsAFP2 (grown on minimal selective SD medium supplemented with 0.5% w/v of casamino acids) was centrifuged (4000 rpm, 10 min), and filtered (0.45 μm) to remove yeast cells and debris. Tris-HC1 (pH9) was added to the supernatant to a final concentration of 50 mM. The sample was loaded at a flow rate of 2 ml/min on an anion exchange chromatography column (Q-Sepharose Fast Flow, 20 ml bed volume, Pharmacia), on-line connected with a disposable reversed-phase C8 silica column (Bond Elut, 500 mg solid phase, Varian, Harbor City, USA). The antifungal activity was not retained on the Q-Sepharose matrix but bound to the C8 silica matrix. […] The latter eluate was dried in a rotating vacuum concentrator, redissolved in 0.5 ml 15% (v/v) acetonitrile containing 0.1% (v/v) TFA, and was loaded on a reversed-phase C2/C18 silica column (Pep-S, 5 μm beads, 0.4×25 cm, Pharmacia connected to a Waters 600 HPLC station pre-equilibriated with 15% acetonitrile containing 0.1% (v/v) TFA. After loading, the column was rinsed with the same buffer until the absorbance reached background level. The column was subsequently eluted with a 15 minute linear gradient from 15% to 50% acetonitrile containing 0.1% TFA at a flow rate of 1 ml/min. The eluate was monitored for proteins by on-line measurement of the absorbance at 280 nm. […] Twenty μl fractions were tested in a liquid growth inhibition assay: 20 μl samples were incubated in microtiter plate wells with 80 μl of half strength potato dextrose broth (Difco) containing 10^4 spores/ml of F culmorum; growth of the fungi was monitored by microspectrophotometry as described by Broekaert et al (1990, FEMS Microbiol Lett, 69: 55-60).
The specific antifungal activity of RPC-purified peak A material, as well as that of plant-derivable Rs-AFP2, was determined by measuring the percentage growth inhibition of F culmorum caused by serial dilutions of the protein samples. […]

F culmorum [2] = experiment: Growth inhibition in SMF with varying CaCl2 or KCl (FIG. 7); type: cell-based
Procedure: Their antifungal activity was determined in SMF with increasing Ca^2+ or K^+ concentration and compared with that of plant-derivable wild type Rs-AFP2 (isolated from seed) as well as yeast purified Rs-AFP2. FIG. 7 is a graph of the percentage growth inhibition of F culmorum caused by 10 μg/ml of yeast-purified Rs-AFP2 (SEQ ID NO: 20) (open circles), seed-purified Rs-AFP2 (SEQ ID NO: 77) (closed circles), Rs-AFP2/G9R (SEQ ID NO: 38) (squares) and Rs-AFP2/V39R (SEQ ID NO: 43) (triangles) in a medium consisting of SMF with varying concentrations of CaCl2 (panel A) and KCl (panel B).

various fungi = settings: cited from earlier work
Verticillium dahliae = experiment: Antifungal activity in three media differing in ionic strength (Table 3); type: cell-based; settings: 96 hours
Procedure: (§1) The antifungal activity of the G9R and V39R Rs-AFP2 isoforms was also assessed on a set of seven different phytopathogenic fungi in three media differing in ionic strength: SMF−, SMF plus 1 mM CaCl2 and 50 mM KCl, and SMF plus 5 mM CaCl2 and 50 mM KCl. The fungi tested were: Alternaria brassicicola, Ascochyta pisi, Botrytis cinerea, Fusarium culmorum, Nectria haematococca, Phoma betae and Verticillium dahliae.

Nectria haematococca = experiment: as above; type: cell-based; settings: 72 hours
Procedure: as §1

Fusarium culmorum [3] = experiment: as above; type: cell-based; settings: 96 hours
Procedure: as §1

Alternaria brassicicola = experiment: as above; type: cell-based; settings: 72 hours
Procedure: as §1

Botrytis cinerea = experiment: as above; type: cell-based; settings: 72 hours
Procedure: as §1

Phoma betae = experiment: as above; type: cell-based
Procedure: as §1

Ascochyta pisi = experiment: as above; type: cell-based; settings: 72 hours
Procedure: as §1

F culmorum [4] = experiment: Specific antifungal activity of Rs-AFP2 isoforms in SMF− and SMF+ media; type: cell-based; set-up: IC50 SMF− / IC50 SMF+: unit not given here
Procedure: For each isoform, two independent purifications were carried out and the antifungal activity was determined in duplicate using F culmorum as a test fungus in two different media: a low ionic strength medium called SMF-(Terras et al, 1992, J Biol Chem, 267:15301-15309) and the same medium supplemented with 1 mM CaCl2 and 50 mM KCl called SMF+. The presence of salts in the test medium, especially salts with divalent cations, reduces the specific activity of Rs-AFP2. Seed-purified as well as yeast-expressed wild type Rs-AFP2 served as a control in the assays.
The relative specific activity is expressed as the specific activity of the mutant divided by the specific activity of yRs-AFP2 and multiplied by 100. […] The specific activity was measured in medium SMF−and SMF+.
Deviations are given as standard error of the mean (sem) based on the triplicate experiments. In SMF−, the medium without added salts, most of the derivatives show no decrease or only a minor decrease in antifungal activity, while in SMF+, the medium with added salts, there is a significant decrease in antifungal activity for several Rs-AFP2 isoforms.

## Rs-AFP2: plant-derivable wild-type antifungal protein 2 from Raphanus sativus (radish) seeds ([pGlu]KLCQRPSGTWSGVCGNNNACKNQCIRLEKARHGSCNYVFPAHKCICYFPC; cysteine pairing not given here; listed as Raphanus sativus) [reference compound]
Fusarium culmorum [1]
  IC50 (concentration required for 50% growth inhibition): about 3 μg/ml
  type of inhibition (hyphal morphology): characteristic morphological distortion of the fungal hyphae
F culmorum [2]; SMF with 100 mM KCl, FIG. 7, 10 μg/ml
  activity in the presence of 100 mM KCl: drastically reduced
F culmorum [2]; protein 10 μg/ml
  CaCl2 concentration at which fully active: ≤ 1.25 mM
F culmorum [2]; protein 10 μg/ml, SMF with 5mM CaCl2
  growth inhibition in the presence of 5mM CaCl2: basically inactive
Various fungi
  activity relative to Rs-AFP1 on various fungi: two- to thirty-fold more active
  salt-tolerance relative to Rs-AFP1: increased salt-tolerence
Verticillium dahliae
  IC50 VALUES, V dahliae, SMF + 1 mM CaCl2/50 mM KCl: 11.0 µg/mL
  IC50 VALUES, V dahliae, SMF + 5 mM CaCl2/50 mM KCl: 50.0 µg/mL
Verticillium dahliae; SMF−
  IC50 VALUES, V dahliae, SMF: 1.0 µg/mL
Nectria haematococca
  IC50 VALUES, N haematococca, SMF + 1 mM CaCl2/50 mM KCl: 48.0 µg/mL
  IC50 VALUES, N haematococca, SMF + 5 mM CaCl2/50 mM KCl: >100 µg/mL
Nectria haematococca; SMF−
  IC50 VALUES, N haematococca, SMF: 2.0 µg/mL
Fusarium culmorum [3]
  IC50 VALUES, F culmorum, SMF + 1 mM CaCl2/50 mM KCl: 4.6 µg/mL
  IC50 VALUES, F culmorum, SMF + 5 mM CaCl2/50 mM KCl: 22.0 µg/mL
Fusarium culmorum [3]; SMF−
  IC50 VALUES, F culmorum, SMF: 2.1 µg/mL
Alternaria brassicicola
  IC50 VALUES, A brassicicola, SMF + 1 mM CaCl2/50 mM KCl: >50 µg/mL
  IC50 VALUES, A brassicicola, SMF + 5 mM CaCl2/50 mM KCl: >100 µg/mL
Alternaria brassicicola; SMF−
  IC50 VALUES, A brassicicola, SMF: 3.2 µg/mL
Botrytis cinerea
  IC50 VALUES, B cinerea, SMF + 1 mM CaCl2/50 mM KCl: >50 µg/mL
  IC50 VALUES, B cinerea, SMF + 5 mM CaCl2/50 mM KCl: >100 µg/mL
Botrytis cinerea; SMF−
  IC50 VALUES, B cinerea, SMF: 1.8 µg/mL
Phoma betae; 72 hours
  IC50 VALUES, P betae, SMF + 1 mM CaCl2/50 mM KCl: 14.0 µg/mL
  IC50 VALUES, P betae, SMF + 5 mM CaCl2/50 mM KCl: 27.0 µg/mL
Phoma betae; SMF−, 72 hours
  IC50 VALUES, P betae, SMF: 0.9 µg/mL
Phoma betae; Table 3 data
  activity against P betae compared with the G9R and V39R isoforms, in words: appeared to be more active
Ascochyta pisi
  IC50 VALUES, A pisi, SMF + 1 mM CaCl2/50 mM KCl: >50 µg/mL
  IC50 VALUES, A pisi, SMF + 5 mM CaCl2/50 mM KCl: >100 µg/mL
Ascochyta pisi; SMF−
  IC50 VALUES, A pisi, SMF: 1.9 µg/mL

## SIα2: Sorghum bicolor α-amylase inhibitor 2, partially homologous to Rs-AFP2
Fusarium culmorum [1]; assayed as described in Example 2
  antifungal activity: does not exhibit antifungal activity

## yRs-AFP2: yeast-expressed wild-type Rs-AFP2 (QKLCQRPSGTWSGVCGNNNACKNQCIRLEKARHGSCNYVFPAHKCICYFPC; listed as Raphanus sativus) [reference compound]
Fusarium culmorum [1]
  IC50 (concentration required for 50% growth inhibition): about 3 μg/ml
  type of inhibition (hyphal morphology): characteristic morphological distortion of the fungal hyphae
F culmorum [4]; 1/IC50 of mutant divided by that of yRs-AFP2 x 100, 48 hour incubation, SMF with 1 mM CaCl2 and 50 mM KCl, preliminary tests
  RELATIVE SPECIFIC ACTIVITY (%) IN MEDIUM SMF+: 100%
F culmorum [4]; 1/IC50 of mutant divided by that of yRs-AFP2 x 100, 48 hour incubation, low ionic strength medium, preliminary tests
  RELATIVE SPECIFIC ACTIVITY (%) IN MEDIUM SMF−: 100%
F culmorum [4]; 72 hours growth, high salt medium (1 mM CaCl2, 50 mM KCl), triplicate
  IC50 SMF+: 8.5
F culmorum [4]; 72 hours growth, low salt medium, triplicate
  IC50 SMF−: 2.7

Source: patent publication US6864068B2, “Antifungal proteins” (Syngenta Limited, priority 1995, dated 2005)
